Read-outs that look alike come from different tables or passages of the source. Starred links: 1 amine or outer side, 2 acyl side, 3 side chain; linkers in the order of their positions; H or OH if unused. Non-standard residues stand in square brackets, D forms with d. Groups on a side chain read outwards from the residue. No end group written: not given here. *: point of attachment. C18 diacid = O=C(O)CCCCCCCCCCCCCCCCC(=O)*; αMePhe(2-F) = C[C@](N)(Cc1ccccc1F)C(=O)O; γGlu = O=C(O)[C@H](CCC(=O)[*:2])N[*:1]; αMe4Pal = C[C@](N)(Cc1ccncc1)C(=O)O; αMeY = C[C@](N)(Cc1ccc(O)cc1)C(=O)O; αMeF = C[C@](N)(Cc1ccccc1)C(=O)O; 4Pal = N[C@@H](Cc1ccncc1)C(=O)O; αMeL = CC(C)C[C@](C)(N)C(=O)O; αMeS = C[C@](N)(CO)C(=O)O; Orn = NCCC[C@H](N)C(=O)O; AEEA = NCCOCCOCC(=O)O; Aib = CC(C)(N)C(=O)O
Columns and labels:
Format in all cases: cell-based
hGLP-1R [1] = biological target: T1, hGLP-1R (Homo sapiens, UniProt P43220); experiment: Functional cAMP activity in the presence of 1% HSA; conditions: read-out: cAMP Rel EC50, hGLP-1R
human GcgR = human GcgR (Homo sapiens, UniProt P47871); experiment: Functional cAMP activity in the presence of 1% HSA; conditions: read-out: cAMP Rel EC50, hGcgR
hGIPR [2] = biological target: T2, hGIPR (Homo sapiens, UniProt P48546); experiment: Functional cAMP activation in the presence of 0.1% casein (no HSA); conditions: read-out: Relative cAMP EC50, hGIPR;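 further: intracellular cAMP rise after 30 min at 37 °C read by HTRF against a standard curve, scaled between buffer alone (0%) and top control ligand concentration (100%), four-parameter fit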
T2 sequence (P48546 22-466): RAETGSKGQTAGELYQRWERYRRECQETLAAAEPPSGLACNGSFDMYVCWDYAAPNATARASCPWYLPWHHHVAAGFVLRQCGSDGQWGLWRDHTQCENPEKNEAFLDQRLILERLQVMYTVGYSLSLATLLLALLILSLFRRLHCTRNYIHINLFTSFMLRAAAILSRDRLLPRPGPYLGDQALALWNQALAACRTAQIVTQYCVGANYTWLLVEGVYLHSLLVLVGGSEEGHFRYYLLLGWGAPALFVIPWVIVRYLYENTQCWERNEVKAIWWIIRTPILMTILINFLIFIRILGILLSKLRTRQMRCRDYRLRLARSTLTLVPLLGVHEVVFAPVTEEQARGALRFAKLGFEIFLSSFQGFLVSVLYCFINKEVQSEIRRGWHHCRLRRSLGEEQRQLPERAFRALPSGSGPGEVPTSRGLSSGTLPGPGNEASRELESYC

hGcgR = hGcgR (Homo sapiens, UniProt P47871); experiment: as above; conditions: read-out: Relative cAMP EC50, hGcgR;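 further: intracellular cAMP rise after 30 min at 37 °C, read by HTRF against a cAMP standard curve, scaled from buffer only (0%) to maximal control ligand response (100%)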
hGLP-1R [3] = biological target: T1, hGLP-1R; experiment: as above; conditions: read-out: Relative cAMP EC50, hGLP-1R
hGIPR [4] = biological target: T2, hGIPR; experiment: Functional cAMP activity in the presence of 1% HSA; conditions: read-out: cAMP Rel EC50, hGIPR
[5] = in the presence of 0.1% casein (no HSA), geometric mean
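Wherever Relative cAMP EC50, hGLP-1R is given: intracellular cAMP rise after 30 min at 37 °C read by HTRF, normalized between buffer only (0%) and maximal control ligand (100%), four-parameter variable-slope fit.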

T1 sequence (P43220 24-463): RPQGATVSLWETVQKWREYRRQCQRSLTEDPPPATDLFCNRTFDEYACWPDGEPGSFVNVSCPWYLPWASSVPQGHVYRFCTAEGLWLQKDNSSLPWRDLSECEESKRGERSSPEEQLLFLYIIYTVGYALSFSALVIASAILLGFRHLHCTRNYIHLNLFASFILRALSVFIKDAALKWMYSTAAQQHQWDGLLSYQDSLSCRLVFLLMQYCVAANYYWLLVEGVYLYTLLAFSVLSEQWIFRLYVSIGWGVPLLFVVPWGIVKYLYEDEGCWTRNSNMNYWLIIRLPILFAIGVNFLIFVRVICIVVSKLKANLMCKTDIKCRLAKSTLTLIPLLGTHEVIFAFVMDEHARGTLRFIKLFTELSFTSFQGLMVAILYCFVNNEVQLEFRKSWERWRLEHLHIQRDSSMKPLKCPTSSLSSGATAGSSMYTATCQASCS
Sequence of human GcgR (P47871 26-477): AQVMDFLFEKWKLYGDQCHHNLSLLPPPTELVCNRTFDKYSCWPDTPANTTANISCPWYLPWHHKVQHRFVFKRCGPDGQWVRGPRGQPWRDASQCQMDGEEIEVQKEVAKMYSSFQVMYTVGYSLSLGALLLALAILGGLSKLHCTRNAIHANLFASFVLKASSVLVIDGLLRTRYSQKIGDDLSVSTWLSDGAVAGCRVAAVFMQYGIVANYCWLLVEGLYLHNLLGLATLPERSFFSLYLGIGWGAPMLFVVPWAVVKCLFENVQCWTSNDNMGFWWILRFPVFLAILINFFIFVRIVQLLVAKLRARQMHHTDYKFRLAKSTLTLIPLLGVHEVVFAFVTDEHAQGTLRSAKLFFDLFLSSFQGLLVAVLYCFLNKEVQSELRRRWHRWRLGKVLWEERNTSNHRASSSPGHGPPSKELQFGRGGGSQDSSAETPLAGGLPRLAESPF
Sequence of hGcgR (P47871 26-477): as above

## H-Y[Aib]QGTFTSDFS[Orn][αMeL]LDKK([AEEA-γGlu-C18 diacid])AQ[Aib]AFIEWLLEGGHSSGAPPPSGS-NH2 [Example 170]
hGLP-1R [1]
  EC50: 361 nM
Human GcgR
  EC50: 1800 nM
hGIPR [2]; [5]
  EC50: 0.401 nM
hGcgR; [5]
  EC50: 5.29 nM
hGLP-1R [3]; [5]
  EC50: 4.11 nM
hGIPR [4]
  EC50: 43.5 nM

## H-Y[Aib]QGTFTSDFS[Orn][αMeL]LDKK([AEEA-AEEA-γGlu-C18 diacid])AQ[Aib]AFIEYLLE[dA]GPSSG[4Pal]PPPSGH-NH2 [Example 257]
hGLP-1R [1]
  EC50: 388 nM
Human GcgR
  EC50: 1210 nM
hGIPR [2]; [5]
  EC50: 0.135 nM
hGcgR; [5]
  EC50: 7.36 nM
hGLP-1R [3]; [5]
  EC50: 2.66 nM
hGIPR [4]
  EC50: 21 nM

## H-Y[Aib]QGTFTSDFS[Orn][αMeL]LDKK([γGlu-γGlu-C18 diacid])AQ[Aib]AFIEYLLEGGPSS[Aib]APPPGGS-NH2 [Example 770]
hGLP-1R [1]
  EC50: 240 nM
Human GcgR
  EC50: 390 nM
hGIPR [2]
  EC50: 0.244 nM
hGcgR
  EC50: 5.37 nM
hGLP-1R [3]
  EC50: 3.91 nM
hGIPR [4]
  EC50: 18.2 nM

## H-Y[Aib]QGTFTSD[4Pal]SQ[αMeL]LDKK([AEEA-γGlu-C18 diacid])AQ[αMe4Pal]AFIE[αMeY]LIEGGPSSGAPPPSGS-NH2 [Example 844]
hGLP-1R [1]
  EC50: 151 nM
Human GcgR
  EC50: 583 nM
hGIPR [2]; [5]
  EC50: 0.27 nM
hGcgR; [5]
  EC50: 2.83 nM
hGLP-1R [3]; [5]
  EC50: 0.61 nM
hGIPR [4]
  EC50: 43.3 nM

## H-Y[Aib]QGTFTSD[4Pal]S[Orn][αMeL]LDKK([AEEA-γGlu-C18 diacid])AQ[Aib]AFIE[αMeY]LIEGGPSSGAPPPSGS-NH2 [Example 836]
hGLP-1R [1]
  EC50: 103 nM
Human GcgR
  EC50: 2100 nM
hGIPR [2]; [5]
  EC50: 0.294 nM
hGcgR; [5]
  EC50: 17.1 nM
hGLP-1R [3]; [5]
  EC50: 0.794 nM
hGIPR [4]
  EC50: 26.7 nM

## Y[Aib]QGT[αMeF]TSD[4Pal][αMeS]I[αMeL]LD[Orn]K([AEEA-γGlu-C18 diacid])AQ[αMe4Pal]EFI[dE][αMeY]LIEGGPSSGEPPPSGGGE-NH2 [Example 1169]
hGLP-1R [1]
  EC50: 80 nM
Human GcgR
  EC50: 304 nM
hGIPR [2]; [5]
  EC50: 0.011 nM
hGcgR; [5]
  EC50: 2.43 nM
hGLP-1R [3]; [5]
  EC50: 0.613 nM
hGIPR [4]
  EC50: 1.18 nM

## Y[Aib]QGTFTSD[4Pal]SQ[αMeL]LDKK([AEEA-γGlu-C18 diacid])AQ[αMe4Pal]AFIEYLIE[Aib]GPSSGAPPPSGS-NH2 [Example 810]
hGLP-1R [1]
  EC50: 256 nM
Human GcgR
  EC50: 540 nM
hGIPR [2]; [5]
  EC50: 0.156 nM
hGcgR; [5]
  EC50: 3.3 nM
hGLP-1R [3]; [5]
  EC50: 2.09 nM
hGIPR [4]
  EC50: 23.6 nM

## H-Y[Aib]QGT[αMePhe(2-F)]TSD[4Pal]SILLDKK([γGlu-γGlu-C18 diacid])AQ[Aib]AFIEYLEEGGPSSGAPPPEGTE-NH2 [Example 659]
hGLP-1R [1]
  EC50: 81.5 nM
Human GcgR
  EC50: 735 nM
hGIPR [2]
  EC50: 0.0673 nM
hGcgR
  EC50: 5.89 nM
hGLP-1R [3]
  EC50: 1.31 nM
hGIPR [4]
  EC50: 5.75 nM

## H-Y[Aib]QGTFTSD[4Pal]SQ[αMeL]LD[Orn]K([AEEA-γGlu-C18 diacid])AQ[αMe4Pal]AFIE[αMeY]LIEGGPSSGAPPPSGSEE-NH2 [Example 1041]
hGLP-1R [1]
  EC50: 316 nM
Human GcgR
  EC50: 1720 nM
hGIPR [2]; [5]
  EC50: 0.365 nM
hGcgR; [5]
  EC50: 7.71 nM
hGLP-1R [3]; [5]
  EC50: 1.24 nM
hGIPR [4]
  EC50: 75.7 nM

## H-Y[Aib]QGTFTSD[4Pal]SQ[αMeL]LD[Orn]K([γGlu-γGlu-C18 diacid])AQ[αMe4Pal]QFIE[αMeY]LIEGGPSSGAPPPSGSEE-NH2 [Example 1046]
hGLP-1R [1]
  EC50: 528 nM
Human GcgR
  EC50: 1680 nM
hGIPR [2]; [5]
  EC50: 0.352 nM
hGcgR; [5]
  EC50: 10 nM
hGLP-1R [3]; [5]
  EC50: 1.94 nM
hGIPR [4]
  EC50: 85 nM

## H-Y[Aib]QGTFTSD[4Pal]SR[αMeL]LDKK([AEEA-AEEA-γGlu-C18 diacid])AQ[αMe4Pal]AFIEYLIE[Aib]GPSSGAPPPSGS-NH2 [Example 815]
hGLP-1R [1]
  EC50: 342 nM
Human GcgR
  EC50: 798 nM
hGIPR [2]; [5]
  EC50: 0.181 nM
hGcgR; [5]
  EC50: 4.13 nM
hGLP-1R [3]; [5]
  EC50: 2.79 nM
hGIPR [4]
  EC50: 17.9 nM
